pEC50: −log10 of the molar value. Activity calls are given as the source filed them. The calls are words filed in the database; no cut-off is given here.
Tests used:
[1] = target: T1, Aryl hydrocarbon receptor (Homo sapiens, UniProt P35869); experiment: Agonist activity at AHR in human HepG2-Lucia AhR cells stably transfected with DRE by luciferase reporter assay; type: cell-based
T1 sequence (P35869 whole entry): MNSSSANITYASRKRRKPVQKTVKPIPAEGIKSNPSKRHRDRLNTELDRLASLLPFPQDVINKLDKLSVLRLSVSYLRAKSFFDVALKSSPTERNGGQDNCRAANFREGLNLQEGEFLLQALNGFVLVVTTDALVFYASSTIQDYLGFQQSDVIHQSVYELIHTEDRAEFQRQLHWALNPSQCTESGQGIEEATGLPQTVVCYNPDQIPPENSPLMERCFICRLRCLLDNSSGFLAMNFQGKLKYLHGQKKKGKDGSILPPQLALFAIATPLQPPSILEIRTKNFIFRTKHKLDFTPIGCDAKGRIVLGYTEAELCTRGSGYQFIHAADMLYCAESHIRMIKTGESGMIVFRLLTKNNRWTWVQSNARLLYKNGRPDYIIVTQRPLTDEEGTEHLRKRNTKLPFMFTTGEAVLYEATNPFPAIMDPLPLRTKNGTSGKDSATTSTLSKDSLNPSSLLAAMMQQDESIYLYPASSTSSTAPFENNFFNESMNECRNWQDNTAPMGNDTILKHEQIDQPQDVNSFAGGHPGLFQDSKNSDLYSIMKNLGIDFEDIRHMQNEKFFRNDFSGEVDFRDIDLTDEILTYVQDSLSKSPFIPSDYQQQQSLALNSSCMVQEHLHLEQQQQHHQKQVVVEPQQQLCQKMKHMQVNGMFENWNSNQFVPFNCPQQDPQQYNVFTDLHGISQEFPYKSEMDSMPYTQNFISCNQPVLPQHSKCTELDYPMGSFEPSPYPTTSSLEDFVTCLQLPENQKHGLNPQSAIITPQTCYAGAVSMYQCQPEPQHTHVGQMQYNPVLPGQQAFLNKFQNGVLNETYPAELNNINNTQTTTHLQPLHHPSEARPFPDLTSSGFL

[2] = target: T1, Aryl hydrocarbon receptor; experiment: Agonist activity at AHR in human HepG2 cells stably transfected with DRE assessed as increase in AHR nuclear translocation at 1 to 10 uM by Western blot analysis; type: cell-based; settings: dose 1-10 µM
Mus musculus = experiment: Anti-psoriatic activity in imiquimod-induced BALB/c mouse model assessed as decrease in psoriasis-like skin lesion at 1 % administered topically; type: functional, organism-based; settings: Zone of skin, route top
[3] = target: T1, Aryl hydrocarbon receptor; experiment: Agonist activity at AHR in human HepG2 cells stably transfected with DRE assessed as increase in CYP1A1 mRNA expression by qPCR assay; type: cell-based; settings: dose 0.1-10 µM

Structure (SMILES) | pEC50 [1] | other results
CN1C(=O)/C(=C/c2c[nH]c3ccccc23)NC1=S | 6.84 | 
Cc1ccc([N+](=O)[O-])c2c1NC(c1ccc(Br)cc1)=NO2 | 5.47 | 
CN1C(=O)/C(=C/c2cncnc2)NC1=S | < 5.00 | 
CC(C)N1C(=O)/C(=C/c2c[nH]c3ccccc23)NC1=S | 5.00 | 
CCN1C(=O)/C(=C/c2n[nH]c3ccccc23)NC1=S | 6.66 | 
CC#CCN1C(=O)/C(=C/c2n[nH]c3ccccc23)NC1=S | 6.28 | 
Cc1cc(-c2nnc3sc(-c4ccccc4Br)nn23)[nH]n1 | 5.55 | 
O=C1NC(=S)N/C1=C\c1c[nH]c2ccccc12 | < 5.00 | 
CN1C(=S)NC(=O)/C1=C/c1n[nH]c2ccccc12 | 5.60 | 
C#CCN1C(=O)/C(=C/c2n[nH]c3ccccc23)NC1=S | 7.82 | Activity [2]: Dose-Dependent Effect; Activity (Mus musculus): Active; Activity [3]: Dose-Dependent Effect
CCN1C(=O)/C(=C\c2c[nH]c3ccccc23)NC1=S | 5.74 | 
Cc1[nH]c2ccccc2c1/C=C1\NC(=S)N(C)C1=O | < 5.00 | 
O=C1NC(=O)/C(=C/c2c[nH]c3ccccc23)N1 | < 5.00 | 
COc1cccc(OC)c1C(=O)OCc1cc(=O)n2cc(Br)ccc2n1 | 5.23 | 
CN1C(=O)/C(=C/c2n[nH]c3ccccc23)NC1=S | 7.31 | 
CN1C(=O)C(Cc2c[nH]c3ccccc23)NC1=S (stereo not given) [NECROSTATIN] | < 5.00 | 
CN1C(=O)/C(=C/c2csc3ccccc23)NC1=S | 5.74 | 

Reference: ChEMBL document CHEMBL5365401, “Discovery of 5-((1H-indazol-3-yl) methylene)-2-thioxoimidazolidin-4-one derivatives as a new class of AHR agonists with anti-psoriasis activity in a mouse model” (Bioorg Med Chem Lett, 2023)
